Assay results reported in patent US9708336B2, “Metallo-beta-lactamase inhibitors” (priority 2014, dated 2017).
Like-named read-outs stand apart in the source and are kept apart here.

Legend:
VIM-1 = VIM-1 (Pseudomonas aeruginosa (strain ATCC 15692 / DSM 22644 / CIP 104116 / JCM 14847 / LMG 12228 / 1C / PRS 101 / PAO1), UniProt A0A0F7KYQ8); experiment: Enzyme activity: determination of IC50, fluorescence assay with CCF2-FA substrate (VIM-1); type: biochemical
NDM-1 = NDM-1 (Klebsiella pneumoniae, UniProt C7C422); experiment: biochemical; type: biochemical; settings: read-out: NDM-1 IC50
[1] = tested on: Serratia marcescens expressing IMP-1 (CL5741); experiment: Antibiotic potentiation activity: synergistic concentration (MITC95) with imipenem, OD600 growth; type: cell-based
Summary of the method: (§1)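 Bacteria were grown overnight on agar at 35 °C, diluted 1:100 from saline into 1.1× CAMHB, then given compound with or without imipenem (4 μg/ml in assay, optionally 1 μg/ml). Endpoint: absorbance at 22–24 h.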

[2] = tested on: Escherichia coli expressing NDM-1 (CLB30016); experiment: as above; type: cell-based
Summary of the method: as §1

[3] = tested on: Klebsiella pneumoniae expressing VIM-1 (IHMA599644); experiment: as above; type: cell-based
Summary of the method: as §1

IMP-1 = IMP-1 (Serratia marcescens, UniProt P52699); experiment: biochemical; type: biochemical; settings: read-out: IMP-1 IC50
[4] = VIM-1 enzyme, CCF2-FA fluorescence assay, read-out: VIM-1 IC50
[5] = NDM-1 enzyme, CCF2-FA fluorescence assay
[6] = Serratia marcescens expressing IMP-1 (CL5741), 95% growth inhibition
[7] = Escherichia coli expressing NDM-1 (CLB30016), 95% growth inhibition
[8] = Klebsiella pneumoniae expressing VIM-1 (IHMA599644), 95% growth inhibition
[9] = IMP-1 enzyme, CCF2-FA fluorescence assay
[10] = VIM-1 enzyme, CCF2-FA substrate, read-out: VIM-1 IC50
[11] = NDM-1 enzyme, CCF2-FA substrate
[12] = Serratia marcescens CL5741 (IMP-1), 95% growth inhibition
[13] = (CLB30016, NDM-1), 95% growth inhibition
[14] = Klebsiella pneumoniae IHMA599644 (VIM-1), 95% growth inhibition
[15] = IMP-1 enzyme, CCF2-FA substrate
[16] = VIM-1 IC50, VIM-1 enzyme, CCF2-FA substrate
[17] = VIM-1 IC50, fluorescence assay with CCF2-FA substrate
[18] = fluorescence assay with CCF2-FA substrate
[19] = CL5741 (IMP-1), 95% inhibition of bacterial growth
[20] = CLB30016 (NDM-1), 95% inhibition of bacterial growth
[21] = IHMA599644 (VIM-1), 95% inhibition of bacterial growth
[22] = fluorescence assay with CCF2-FA substrate, read-out: VIM-1 IC50

Sequence of NDM-1 (C7C422 whole entry, looked up, species assumed): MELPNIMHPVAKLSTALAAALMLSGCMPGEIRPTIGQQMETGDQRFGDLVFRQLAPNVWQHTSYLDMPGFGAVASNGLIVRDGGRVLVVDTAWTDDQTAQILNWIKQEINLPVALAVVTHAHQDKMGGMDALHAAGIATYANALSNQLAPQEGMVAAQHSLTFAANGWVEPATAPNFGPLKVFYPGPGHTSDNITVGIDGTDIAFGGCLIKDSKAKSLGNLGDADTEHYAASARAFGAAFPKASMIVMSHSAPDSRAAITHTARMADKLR
Sequence of IMP-1 (P52699 whole entry, looked up): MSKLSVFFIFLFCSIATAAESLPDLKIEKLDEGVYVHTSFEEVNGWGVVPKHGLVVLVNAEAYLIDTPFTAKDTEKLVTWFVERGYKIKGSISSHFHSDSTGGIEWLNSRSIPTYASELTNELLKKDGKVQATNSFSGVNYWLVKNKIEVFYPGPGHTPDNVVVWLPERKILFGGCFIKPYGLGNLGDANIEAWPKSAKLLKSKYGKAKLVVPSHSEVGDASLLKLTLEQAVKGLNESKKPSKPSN

Structure (SMILES)	IC50 (VIM-1; [4]) [µM]	IC50 (NDM-1; [5]) [µM]	Serratia marcescens MITC95 [1, 6] [µM]	Escherichia coli MITC95 [2, 7] [µM]	Klebsiella pneumoniae MITC95 [3, 8] [µM]	IC50 (IMP-1; [9]) [µM]	IC50 (NDM-1; [11]) [µM]	Serratia marcescens MITC95 [1, 12] [µM]	Escherichia coli MITC95 [2, 13] [µM]	Klebsiella pneumoniae MITC95 [3, 14] [µM]	IC50 (IMP-1; [15]) [µM]	IC50 (NDM-1; [18]) [µM]	Serratia marcescens MITC95 [1, 19] [µM]	Escherichia coli MITC95 [2, 20] [µM]	Klebsiella pneumoniae MITC95 [3, 21] [µM]	IC50 (IMP-1; [18]) [µM]	also measured
CN(C)CCCNCc1ccc(-c2cccc(S(N)(=O)=O)c2-c2nnn[nH]2)cc1 [Example 348, 4′-({[3-(dimethylamino)propyl]amino}methyl)-2-(1H-tetrazol-5-yl)biphenyl-3-sulfonamide]	0.851	0.0254	9.375	1.172	75	1.33	–	–	–	–	–	–	–	–	–	–	–
Nc1ccc(-c2ccc(C[C@H]3CC[C@@H](N)CC3)c(S(N)(=O)=O)c2-c2nnn[nH]2)cn1 [Example 574, 6-(((1s,4s)-4-aminocyclohexyl)methyl)-3-(6-aminopyridin-3-yl)-2-(2H-tetrazol-5-yl)benzenesulfonamide]	–	–	–	–	–	–	0.0015	3.125	0.3906	3.125	0.0359	–	–	–	–	–	IC50 (VIM-1; [10]): 0.00794 µM
NS(=O)(=O)c1cccc(-c2ccc(CNC[C@@]3(O)CCOC3)cc2)c1-c1nnn[nH]1 [Example 373, 4′-[({[(3S)-3-hydroxytetrahydrofuran-3-yl]methyl}amino)methyl]-2-(1H-tetrazol-5-yl)biphenyl-3-sulfonamide]	0.241	0.0113	3.125	1.563	50	0.247	–	–	–	–	–	–	–	–	–	–	–
NS(=O)(=O)c1cccc(-c2cccc3c2OCC3=O)c1-c1nn[nH]n1 [Example 521, 3-(3-Oxo-2,3-dihydrobenzofuran-7-yl)-2-(2H-tetrazol-5-yl)benzenesulfonamide]	–	–	–	–	–	–	0.00344	12.5	1.563	12.5	0.559	–	–	–	–	–	IC50 (VIM-1; [10]): 0.0197 µM
CC(CC(=O)O)NCc1ccc(-c2cccc(S(N)(=O)=O)c2-c2nnn[nH]2)cc1 (stereo not drawn) [Example 344, 3-({[3′-sulfamoyl-2′-(1H-tetrazol-5-yl)biphenyl-4-yl]methyl}amino)butanoic acid]	0.585	0.0328	4.688	2.344	100	0.242	–	–	–	–	–	–	–	–	–	–	–
Nc1ncc(C#Cc2ccc(C(F)(F)F)c(S(N)(=O)=O)c2-c2nn[nH]n2)cc1CO [Example 507, 3-((6-Amino-5-(hydroxymethyl)pyridin-3-yl)ethynyl)-2-(2H-tetrazol-5-yl)-6-(trifluoromethyl)benzenesulfonamide]	–	–	–	–	–	–	0.0115	0.5859	4.688	25	0.00431	–	–	–	–	–	IC50 (VIM-1; [16]): 0.00327 µM
N#CCCc1ccc(-c2ccnc3ccccc23)c(-c2nn[nH]n2)c1S(N)(=O)=O [Example 453, 6-(2-cyanoethyl)-3-(quinolin-4-yl)-2-(2H-tetrazol-5-yl)benzenesulfonamide]	0.000665	0.00688	12.5	4.688	6.25	0.111	–	–	–	–	–	–	–	–	–	–	–
CC(O)C1CCN(Cc2ccc(-c3cccc(S(N)(=O)=O)c3-c3nnn[nH]3)cc2)C1 (stereo not drawn) [Example 351, 4′-{[3-(1-hydroxyethyl)pyrrolidin-1-yl]methyl}-2-(1H-tetrazol-5-yl)biphenyl-3-sulfonamide]	0.414	0.0181	3.125	1.563	150	0.332	–	–	–	–	–	–	–	–	–	–	–
NS(=O)(=O)c1c(C(F)(F)F)ccc(-c2ccc(C3CCN(CC4CCCNC4)CC3)cc2)c1-c1nnn[nH]1 (stereo not drawn) [Example 673, 4′-[1-(piperidin-3-ylmethyl)piperidin-4-yl]-2-(1H-tetrazol-5-yl)-4-(trifluoromethyl)biphenyl-3-sulfonamide]	–	–	–	–	–	–	0.0101	3.125	3.125	62.5	0.00135	–	–	–	–	–	IC50 (VIM-1; [10]): 0.00907 µM
NC1CCCC1N1CC(c2ccc(-c3ccc(C(F)(F)F)c(S(N)(=O)=O)c3-c3nnn[nH]3)cc2)C1 (stereo not drawn) [Example 811, 4′-[1-(2-aminocyclopentyl)azetidin-3-yl]-2-(1H-tetrazol-5-yl)-4-(trifluoromethyl)biphenyl-3-sulfonamide]	–	–	–	–	–	–	–	–	–	–	–	0.00478	6.25	1.563	100	0.00942	IC50 (VIM-1; [17]): 0.0279 µM
NCCCCN1CC(c2ccc(-c3ccc(C(F)(F)F)c(S(N)(=O)=O)c3-c3nnn[nH]3)cc2)C1 [Example 817, 4′-[1-(4-aminobutyl)azetidin-3-yl]-2-(1H-tetrazol-5-yl)-4-(trifluoromethyl)biphenyl-3-sulfonamide]	–	–	–	–	–	–	–	–	–	–	–	0.00446	6.25	1.563	12.5	0.015	IC50 (VIM-1; [22]): 0.0095 µM
NC1CCC(c2ccc(CC3CCNCC3)c(S(N)(=O)=O)c2-c2nn[nH]n2)CC1 (stereo not drawn) [Example 839, 3-(4-aminocyclohexyl)-6-(piperidin-4-ylmethyl)-2-(2H-tetrazol-5-yl)benzenesulfonamide]	–	–	–	–	–	–	–	–	–	–	–	0.0569	6.25	3.125	6.25	0.359	IC50 (VIM-1; [22]): 0.0193 µM
NS(=O)(=O)c1c(C(F)(F)F)ccc(-c2cnc(N3CCNCC3)nc2)c1-c1nnn[nH]1 [Example 706, 3-(2-piperazin-1-ylpyrimidin-5-yl)-2-(1H-tetrazol-5-yl)-6-(trifluoromethyl)benzenesulfon-amide]	–	–	–	–	–	–	0.00452	6.25	3.125	1.563	0.0124	–	–	–	–	–	IC50 (VIM-1; [16]): 0.000632 µM
NS(=O)(=O)c1c(CC2(F)CCNC2)ccc(-c2ccc(C3CCNCC3)cc2)c1-c1nn[nH]n1 (stereo not drawn) [Example 467, 4-((3-fluoropyrrolidin-3-yl)methyl)-4′-(piperidin-4-yl)-2-(2H-tetrazol-5-yl)-[1,1′-biphenyl]-3-sulfonamide]	0.00475	0.0102	1.563	0.7813	1.563	0.0348	–	–	–	–	–	–	–	–	–	–	–
NS(=O)(=O)c1c(C(F)(F)F)ccc(-c2ccc3c(c2)CNC3=O)c1-c1nnn[nH]1 [Example 746, 3-(1-oxo-2,3-dihydro-1H-isoindol-5-yl)-2-(1H-tetrazol-5-yl)-6-(trifluoromethyl)benzenesulfon-amide]	–	–	–	–	–	–	–	–	–	–	–	0.00227	6.25	6.25	6.25	0.00259	IC50 (VIM-1; [22]): 0.000234 µM
NS(=O)(=O)c1c(C(F)(F)F)ccc(-c2ccc(C3CN(CCC4CCNCC4)C3)cc2)c1-c1nnn[nH]1 [Example 803, 4′-[1-(2-piperidin-4-ylethyl)azetidin-3-yl]-2-(1H-tetrazol-5-yl)-4-(trifluoromethyl)biphenyl-3-sulfonamide]	–	–	–	–	–	–	–	–	–	–	–	0.00487	6.25	6.25	100	0.013	IC50 (VIM-1; [17]): 0.0132 µM
